Data from ChEMBL document CHEMBL4765358, “Discovery of highly potent and selective antiparasitic new oxadiazole and hydroxy-oxindole small molecule hybrids” (Eur J Med Chem, 2020).

What was measured:
Trypanosoma cruzi [1] = assay: Antitrypanosomal activity against Trypanosoma cruzi (MHOM/CH/00/Tulahuen C2, lacZ) amastigotes infected in HFF-1 cells assessed as reduction in parasite growth incubated for 120 hrs by CPRG/Igepal substrate based photometric method; format: functional, organism-based; details: MHOM/CH/00/Tulahuen C2, HFF-1, 120 h
Trypanosoma cruzi [2] = assay: Antitrypanosomal activity against Trypanosoma cruzi (MHOM/CH/00/Tulahuen C2, lacZ) amastigotes infected in HFF-1 cells assessed as reduction in parasite growth at 300 uM incubated for 120 hrs by CPRG/Igepal substrate based photometric method relative to control; format: functional; details: MHOM/CH/00/Tulahuen C2, HFF-1
Trypanosoma cruzi [3] = assay: Antitrypanosomal activity against Trypanosoma cruzi (MHOM/CH/00/Tulahuen C2, lacZ) amastigotes infected in HFF-1 cells assessed as reduction in parasite growth at 150 uM incubated for 120 hrs by CPRG/Igepal substrate based photometric method relative to control; format: functional; details: MHOM/CH/00/Tulahuen C2, HFF-1
Trypanosoma cruzi [4] = assay: Antitrypanosomal activity against Trypanosoma cruzi (MHOM/CH/00/Tulahuen C2, lacZ) amastigotes infected in HFF-1 cells assessed as reduction in parasite growth at 75 uM incubated for 120 hrs by CPRG/Igepal substrate based photometric method relative to control; format: functional; details: MHOM/CH/00/Tulahuen C2, HFF-1
[5] = Cytotoxicity against human HFF-1 cells assessed as reduction in cell viability incubated for 120 hrs by MTS assay; format: cell-based
Leishmania infantum = assay: Antileishmanial activity against Leishmania infantum MHOM/MA/67/ITMAP-263 infected in THP1 cells assessed as reduction in parasite growth incubated for 120 hrs by Giemsa staining based inverted microscopic analysis; format: functional, organism-based; details: MHOM/MA/67/ITMAP-263, THP-1, 120 h
[6] = Cytotoxicity against human HepG2 cells assessed as reduction in cell viability incubated for 120 hrs by MTS assay; format: cell-based

| SMILES | IC50 (Trypanosoma cruzi [1]) | inhibition at 300 µM (Trypanosoma cruzi [2]) | inhibition at 150 µM (Trypanosoma cruzi [3]) | inhibition at 75 µM (Trypanosoma cruzi [4]) | CC50 at 120 h [5] | IC50 (Leishmania infantum) | CC50 at 120 h [6] |
| --- | --- | --- | --- | --- | --- | --- | --- |
| O=C(Cn1ccnc1[N+](=O)[O-])NCc1ccccc1 [BENZNIDAZOLE] | 5.6 µM | 100% | 92.8% | 85.5% | – | – | – |
| C=CCOC1(C(=C)c2nc(-c3ccccc3)no2)C(=O)N(CC)c2c(Br)cccc21 (stereo unspecified) | 6.3 µM | 100% | 100% | 93.8% | 20.3 µM | 4.86 µM | 60.6 µM |
| C=C(c1nc(-c2ccccc2)no1)C1(O)C(=O)N(CC)c2ccc(Br)cc21 (stereo unspecified) | 2.2 µM | 100% | 100% | 100% | > 64 µM | 3.73 µM | 11.5 µM |
| C=Cc1nc(-c2ccc([N+](=O)[O-])cc2)no1 | > 64 µM | – | – | – | > 64 µM | 12.2 µM | 26.9 µM |
| C=C(c1nc(-c2ccc(OC)cc2)no1)C(O)c1ccccc1[N+](=O)[O-] (stereo unspecified) | > 100 µM | – | – | – | 42.2 µM | 2.38 µM | 10.6 µM |
| C=C(c1nc(-c2ccccc2)no1)C(O)c1cccc(F)c1 (stereo unspecified) | > 100 µM | – | – | – | > 64 µM | 7.29 µM | 14.1 µM |
| C=C(c1nc(-c2ccc([N+](=O)[O-])cc2)no1)C(O)c1nccs1 (stereo unspecified) | 37.1 µM | – | – | – | > 64 µM | > 64 µM | > 64 µM |
| C=C(c1nc(-c2ccccc2)no1)C(O)c1ccc(OC)cc1 (stereo unspecified) | 81.3 µM | – | – | – | > 64 µM | 18 µM | 33.6 µM |
| C=C(c1nc(-c2cc(OC)c(OC)c(OC)c2)no1)C(O)c1ccccc1 (stereo unspecified) | > 100 µM | – | – | – | > 64 µM | 12 µM | 27.4 µM |
| C=C(c1nc(-c2ccc(Cl)cc2)no1)C1(O)C(=O)N(CC)c2ccccc21 (stereo unspecified) | 23.6 µM | – | – | – | > 64 µM | 4.01 µM | 13.8 µM |
| C=C(c1nc(-c2ccc(Cl)cc2)no1)C1(O)C(=O)N(CC)c2ccc([N+](=O)[O-])cc21 (stereo unspecified) | > 64 µM | – | – | – | > 64 µM | 6.48 µM | 10.4 µM |
| C=C(c1nc(-c2ccc(OC)cc2)no1)C1(O)C(=O)N(CC)c2ccc([N+](=O)[O-])cc21 (stereo unspecified) | > 64 µM | – | – | – | > 64 µM | 25.9 µM | 13.6 µM |
| C=C(c1nc(-c2ccc([N+](=O)[O-])cc2)no1)C(O)c1cc(OC)c(OC)c(OC)c1 (stereo unspecified) | > 64 µM | – | – | – | > 64 µM | 52.6 µM | 57.3 µM |
| C=C(c1nc(-c2ccccc2)no1)C1(O)C(=O)N(CC)c2ccccc21 (stereo unspecified) | 2.3 µM | 100% | 100% | 100% | > 64 µM | 7.28 µM | 26.8 µM |
| C=C(c1nc(-c2ccccc2)no1)C(O)c1ccccc1[N+](=O)[O-] (stereo unspecified) | 58.4 µM | – | – | – | > 64 µM | 10.3 µM | 14 µM |
| C=C(c1nc(-c2ccc([N+](=O)[O-])cc2)no1)C1(O)C(=O)N(CC)c2ccc([N+](=O)[O-])cc21 (stereo unspecified) | > 64 µM | – | – | – | > 64 µM | 7.36 µM | 7.12 µM |
| C=C(c1nc(-c2ccccc2)no1)C(O)c1ccc(Br)cc1 (stereo unspecified) | 36.5 µM | – | – | – | > 64 µM | 43.9 µM | 41.1 µM |
| C=C(c1nc(-c2ccccc2)no1)C1(O)C(=O)N(C)c2ccccc21 (stereo unspecified) | > 64 µM | – | – | – | 53.8 µM | 51.4 µM | 6.73 µM |
| C=C(c1nc(-c2ccc(OC)cc2)no1)C(O)c1ccc(C#N)cc1 (stereo unspecified) | > 100 µM | – | – | – | > 64 µM | 3.89 µM | 13.6 µM |

| SMILES | IC50 (Trypanosoma cruzi [1]) | inhibition at 300 µM (Trypanosoma cruzi [2]) | inhibition at 150 µM (Trypanosoma cruzi [3]) | inhibition at 75 µM (Trypanosoma cruzi [4]) | CC50 at 120 h [5] | IC50 (Leishmania infantum) | CC50 at 120 h [6] |
| --- | --- | --- | --- | --- | --- | --- | --- |
| C=C(c1nc(-c2ccccc2)no1)C(O)c1cc2c(cc1Br)OCO2 (stereo unspecified) | 17.6 µM | – | – | – | > 64 µM | 8.93 µM | 58.5 µM |
| C=C(c1nc(-c2ccccc2)no1)C(O)c1ccc(S(C)(=O)=O)cc1 (stereo unspecified) | 64.4 µM | – | – | – | > 64 µM | 8.47 µM | 28.7 µM |
| C=C(c1nc(-c2ccccc2)no1)C1(O)C(=O)N(CC)c2ccc(C)cc21 (stereo unspecified) | 16.6 µM | – | – | – | > 64 µM | 6.01 µM | 26.7 µM |
| C=C(c1nc(-c2ccccc2)no1)C(O)c1ccc(Cl)c(F)c1 (stereo unspecified) | 27 µM | – | – | – | > 64 µM | 18.9 µM | 27.8 µM |
| C=CCOC1(C(=C)c2nc(-c3ccccc3)no2)C(=O)N(CC)c2ccccc21 (stereo unspecified) | 12 µM | – | – | – | > 64 µM | 10.7 µM | > 64 µM |
| C=C(c1nc(-c2ccccc2)no1)C1(O)C(=O)N(CC)c2ccc(OC(F)(F)F)cc21 (stereo unspecified) | > 100 µM | – | – | – | > 64 µM | 11.1 µM | 10.4 µM |
| C=C(c1nc(-c2ccccc2)no1)C1(O)C(=O)N(CC)c2c(Cl)cc(Cl)cc21 (stereo unspecified) | > 100 µM | – | – | – | > 64 µM | 4.1 µM | 6.77 µM |
| C=Cc1nc(-c2ccccc2)no1 | 37.2 µM | – | – | – | > 64 µM | > 64 µM | > 64 µM |
| C=C(c1nc(-c2ccc(OC)cc2)no1)C(O)c1ccccc1C(F)(F)F (stereo unspecified) | 8.8 µM | – | – | – | > 64 µM | 8.55 µM | > 64 µM |
| C=Cc1nc(-c2ccc(OC)cc2)no1 | 15.6 µM | – | – | – | > 64 µM | 25.2 µM | 58 µM |
| C=C(c1nc(-c2ccccc2)no1)C(O)c1cc(F)cc(F)c1 (stereo unspecified) | > 100 µM | – | – | – | > 64 µM | 5.12 µM | 7.92 µM |
| C=C(c1nc(-c2ccc(OC)cc2)no1)C(O)c1ccccc1 (stereo unspecified) | > 100 µM | – | – | – | 55.1 µM | 11.5 µM | 39.6 µM |
| C=C(c1nc(-c2ccccc2)no1)C(O)c1ccc(C#N)cc1 (stereo unspecified) | > 100 µM | – | – | – | > 64 µM | 21.7 µM | 32 µM |
| C=C(c1nc(-c2ccccc2)no1)C1(O)C(=O)N(CC)c2ccc(Cl)cc21 (stereo unspecified) | > 100 µM | – | – | – | > 64 µM | 2.5 µM | 6.78 µM |
| C=C(c1nc(-c2ccccc2)no1)C1(O)C(=O)N(CC)c2ccc(F)cc21 (stereo unspecified) | 14.8 µM | – | – | – | > 64 µM | 3.51 µM | 9.37 µM |
| C=C(c1nc(-c2ccccc2)no1)C(O)c1ccc([N+](=O)[O-])cc1 (stereo unspecified) | 7.8 µM | – | – | – | > 64 µM | 10.4 µM | 14.2 µM |
| CCN1C(=O)C2(OCC=C2c2nc(-c3ccccc3)no2)c2ccccc21 (stereo unspecified) | 12.1 µM | – | – | – | 20.6 µM | 11.7 µM | 60.4 µM |
| C=C(c1nc(-c2ccccc2)no1)C1(O)C(=O)N(CC)c2c(Br)cccc21 (stereo unspecified) | > 100 µM | – | – | – | 21.5 µM | 10.4 µM | 22.8 µM |
| C=C(c1nc(-c2ccccc2)no1)C(O)/C=C/c1ccccc1 (stereo unspecified) | 55.7 µM | – | – | – | > 64 µM | 20.6 µM | 30.3 µM |
